PMC4738305, “Metabolism and Disposition of Aditoprim in Swine, Broilers, Carp and Rats” (Scientific Reports, 2016)
Read-outs that look alike come from different tables or passages of the source.

What was measured:
[1] = Concentration and elimination of ADP and its metabolites in liver, kidney, muscle, fat/skin after oral ^3H-ADP for 7 d; assay type: in vivo, broilers; details: for concentration at 0.25 d / concentration at 1 d / concentration at 3 d / concentration at 7 d / concentration at 14 d: oral; for half-life: po
Method: (§1) A total of 36 animals from each species (swine n = 24) were randomly assigned to six equal treatment groups and administered a single daily dose of ^3 H-ADP at 5 mg/kg b. w. (0.1 Ci/g) through oral gavage for 7 consecutive days. All the animals were housed on the basis of their group in the cages or aquaria throughout the whole study period. A group of animals was slaughtered through exsanguination under diethyl ether inhalation of anesthesia in the period of 6 h, 1, 3, 7, 14, and 21 d after the administration. The blood samples were immediately collected into the heparinized tubes and was centrifuged at 1920 × g at 4 °C for 10 min to obtain the plasma. The tissues from the heart, liver, spleen, lung, kidney, craw (broilers), stomach, intestine, fat, skin, muscle, thymus, pancreas, bile, bladder, hair (scale for carp), genital gland, adrenal glands, swim bladder (carp), brain, lymph, and bursa (broilers) were carefully excised and collected. The tissues were thoroughly rinsed with the deionized water to remove the residuary blood, blotted to dryness, and finally to perform the homogenization. In order to avoid cross-contamination the dissecting instruments were washed during the tissue procurements. The blank tissues were collected in order to provide control matrices. The total radioactivity levels in each sample were determined through LSC. The samples extracted from the plasma, bile, and tissues of the liver, kidney, muscle, and fat/skin were analyzed through LC/MS-IT-TOF and v. ARC radiometric detection for metabolite profiling. The blank samples were used as control to determine the background radioactivity or the endogenous nondrug-related ions observed within respective matrices or their extracts.
(§2) The feces and tissues (2 g) were diluted with a mixture of methanol and chloroform (1:3, v:v; 2 mL/g homogenate). This procedure was carried out in a fume hood for the safety aspects. The pH value was adjusted to 9.0 with NH4OH. The mixture was vortexed and sonicated for 5 min and 10 min, respectively, and finally the samples were centrifuged at 7690 × g for 10 min. The supernatant was aspirated and then transferred into a new centrifuge tube. The obtained pellet was again subjected to the same process of vortex, ultrasonication, extraction, and centrifugation. The combined supernatant was concentrated under a stream of nitrogen in a water bath at 40 °C. The residue was reconstituted with 0.3 mL of methanol–water (1:9, v:v) before the injection into the LC-v. ARC/MS-IT-TOF system for analysis.
(§3) ADP and its metabolites in the prepared samples were determined with a v. ARC radiometric detector and a hybrid IT/TOF mass spectrometer connected to the HPLC system (Shimadzu Corp., Kyoto, Japan). The LC system was equipped with a solvent delivery pump (LC-20AD), an auto-sampler (SIL-20AC), a degasser (DGU-20 A 3), a photodiode array detector (SPD-M20A), a communication base module (CBM-20 A), and a column oven (CTO-20AC). The chromatographic separation was achieved by using an Agilent extend-C18 column (2.1 mm × 150 mm, 5 μm) with a gradient mobile phase of A (0.01% ammonia and 5 mM ammonium acetate in water) and B (methanol) at a flow rate of 0.2 mL/min. The column temperature was maintained at 35 °C. Various HPLC methods were performed because of the large number of different metabolites to be analyzed. For the porcine sample, method 1 started at 5% B and increased to 20% B over 35 min, then to 55% B by 60 min, followed by re-equilibration for another 10 min. For the remaining samples, method 2 started at 10% B and increased to 60% B over 30 min, subsequently was maintained at 60% B for an additional 10 min, and then changed to 90% B over 2 min and maintained for 2 min. Afterwards, a re-equilibration step (decreased to 10% B over 1 min and maintained at 10% B for additional 9 min) was followed. For each matrix, more than 98% of the radioactivity injected into the column was eluted during the running time of the gradient program. […]

[2] = as above; assay type: in vivo, carp; details: for concentration at 0.25 d / concentration at 1 d / concentration at 3 d / concentration at 7 d / concentration at 14 d / concentration at 21 d: carp, oral; for half-life: po
Method: as §1, §2, §3

[3] = as above; assay type: in vivo, rats; details: for half-life: po; for concentration at 0.25 d / concentration at 1 d / concentration at 3 d / concentration at 7 d / concentration at 14 d: oral
Method: as §1, §2, §3

[4] = broiler chicken, kidney, 5 mg/kg b.w.
[5] = broilers, muscle, 5 mg/kg b. w.

SMILES: COc1cc(Cc2cnc(N)nc2N)cc(OC)c1N(C)C [A0, 2,4-Diamino-5-[4-(dimethylamino)-3,5-dimethoxybenzyl] pyrimidine]
- concentration at 0.25 d [1, 4]: 15400 ± 2120 ng/g
- concentration at 1 d [1, 4]: 7240 ± 1020 ng/g
- concentration at 3 d [1, 4]: 1150 ± 440 ng/g
- concentration at 7 d [1, 4]: 170 ± 20 ng/g
- concentration at 14 d [1, 4]: 40 ± 10 ng/g
- concentration at 0.25 d ([1]; broiler chicken, muscle, 5 mg/kg b.w.): 530 ± 220 ng/g
- share of the sample radioactivity in the detected tissues ([1]; broilers liver, kidney, muscle, fat, over the sampling times): more than 42%
- concentration at 0.25 d ([1]; broilers, fat, 5 mg/kg b. w.): 780 ± 240 ng/g
- concentration at 1 d ([1]; broilers, fat, 5 mg/kg b. w.): 180 ± 60 ng/g
- concentration at 3 d ([1]; broilers, fat, 5 mg/kg b. w.): 140 ± 20 ng/g
- concentration at 7 d ([1]; broilers, fat, 5 mg/kg b. w.): 60 ± 10 ng/g
- concentration at 0.25 d ([1]; broilers, liver, 5 mg/kg b. w.): 8040 ± 1400 ng/g
- concentration at 1 d ([1]; broilers, liver, 5 mg/kg b. w.): 1860 ± 580 ng/g
- concentration at 3 d ([1]; broilers, liver, 5 mg/kg b. w.): 1150 ± 440 ng/g
- concentration at 7 d ([1]; broilers, liver, 5 mg/kg b. w.): 580 ± 80 ng/g
- concentration at 14 d ([1]; broilers, liver, 5 mg/kg b. w.): 130 ± 50 ng/g
- concentration at 1 d [1, 5]: 330 ± 100 ng/g
- concentration at 3 d [1, 5]: 220 ± 30 ng/g
- concentration at 7 d [1, 5]: 30 ng/g
- half-life ([1]; broiler fat, after 5 mg/kg b. w. for 7 days, read-out: t1/2 of the individual compound (converted)): 71.5 h
- half-life ([1]; broiler kidney, after 5 mg/kg b. w. for 7 days, read-out: t1/2 of the individual compound (converted)): 55.4 h
- half-life ([1]; broiler liver, after 5 mg/kg b. w. for 7 days, read-out: t1/2 of the individual compound (converted)): 81.6 h
- half-life ([1]; broiler muscle, after 5 mg/kg b. w. for 7 days, read-out: t1/2 of the individual compound (converted)): 40.1 h
- half-life ([1]; tissues (liver, kidney, muscle, fat/skin), 5 mg/kg, broilers tissues, read-out: t1/2 of the individual compound, range over tissues): 40.1 to 81.6 h
- share of the sample radioactivity in the detected tissues ([2]; carp liver, kidney, muscle, skin, over the sampling times): more than 42%
- concentration at 0.25 d ([2]; kidney, 5 mg/kg b.w.): 38900 ± 8000 ng/g
- concentration at 1 d ([2]; kidney, 5 mg/kg b.w.): 6470 ± 1250 ng/g
- concentration at 3 d ([2]; kidney, 5 mg/kg b.w.): 3010 ± 550 ng/g
- concentration at 7 d ([2]; kidney, 5 mg/kg b.w.): 1190 ± 80 ng/g
- concentration at 14 d ([2]; kidney, 5 mg/kg b.w.): 680 ± 80 ng/g
- concentration at 21 d ([2]; kidney, 5 mg/kg b.w.): 90 ± 20 ng/g
- concentration at 0.25 d ([2]; liver, 5 mg/kg b. w.): 13200 ± 3700 ng/g
- concentration at 1 d ([2]; liver, 5 mg/kg b. w.): 5750 ± 950 ng/g
- concentration at 3 d ([2]; liver, 5 mg/kg b. w.): 2370 ± 470 ng/g
- concentration at 7 d ([2]; liver, 5 mg/kg b. w.): 390 ± 100 ng/g
- concentration at 14 d ([2]; liver, 5 mg/kg b. w.): 260 ± 40 ng/g
- concentration at 21 d ([2]; liver, 5 mg/kg b. w.): 90 ± 10 ng/g
- concentration at 0.25 d ([2]; muscle, 5 mg/kg b.w.): 1960 ± 530 ng/g
- concentration at 1 d ([2]; muscle, 5 mg/kg b.w.): 1690 ± 410 ng/g
- concentration at 3 d ([2]; muscle, 5 mg/kg b.w.): 870 ± 180 ng/g
- concentration at 7 d ([2]; muscle, 5 mg/kg b.w.): 410 ± 90 ng/g
- concentration at 14 d ([2]; muscle, 5 mg/kg b.w.): 60 ± 10 ng/g
- concentration at 0.25 d ([2]; skin, 5 mg/kg b. w.): 3040 ± 520 ng/g
- concentration at 1 d ([2]; skin, 5 mg/kg b. w.): 2320 ± 670 ng/g
- concentration at 3 d ([2]; skin, 5 mg/kg b. w.): 1330 ± 150 ng/g
- concentration at 7 d ([2]; skin, 5 mg/kg b. w.): 800 ± 160 ng/g
- concentration at 14 d ([2]; skin, 5 mg/kg b. w.): 60 ± 10 ng/g
- half-life ([2]; carp kidney, after 5 mg/kg b. w. for 7 days, read-out: t1/2 of the individual compound (converted)): 89.3 h
- half-life ([2]; carp liver, after 5 mg/kg b. w. for 7 days, read-out: t1/2 of the individual compound (converted)): 159 h
- half-life ([2]; carp muscle, after 5 mg/kg b. w. for 7 days, read-out: t1/2 of the individual compound (converted)): 68.9 h
- half-life ([2]; carp skin, after 5 mg/kg b. w. for 7 days, read-out: t1/2 of the individual compound (converted)): 57.6 h
- half-life ([2]; tissues (liver, kidney, muscle, fat/skin), 5 mg/kg, carp tissues, read-out: t1/2 of the individual compound, range over tissues): 57.6 to 159 h
- half-life ([3]; rat fat, after 5 mg/kg b. w. for 7 days, read-out: t1/2 of the individual compound (converted)): 62.2 h
- half-life ([3]; rat kidney, after 5 mg/kg b. w. for 7 days, read-out: t1/2 of the individual compound (converted)): 76.8 h
- half-life ([3]; rat liver, after 5 mg/kg b. w. for 7 days, read-out: t1/2 of the individual compound (converted)): 100 h
- half-life ([3]; rat muscle, after 5 mg/kg b. w. for 7 days, read-out: t1/2 of the individual compound (converted)): 70.8 h
- concentration at 0.25 d ([3]; rat, fat, 5 mg/kg b. w.): 290 ± 100 ng/g
- concentration at 1 d ([3]; rat, fat, 5 mg/kg b. w.): 150 ± 30 ng/g
- concentration at 3 d ([3]; rat, fat, 5 mg/kg b. w.): 80 ± 10 ng/g
- concentration at 7 d ([3]; rat, fat, 5 mg/kg b. w.): 30 ng/g
- concentration at 0.25 d ([3]; rat, kidney, 5 mg/kg b.w.): 3800 ± 1550 ng/g
- concentration at 1 d ([3]; rat, kidney, 5 mg/kg b.w.): 1130 ± 430 ng/g
- concentration at 3 d ([3]; rat, kidney, 5 mg/kg b.w.): 590 ± 110 ng/g
- concentration at 7 d ([3]; rat, kidney, 5 mg/kg b.w.): 350 ± 80 ng/g
- concentration at 14 d ([3]; rat, kidney, 5 mg/kg b.w.): 60 ± 10 ng/g
- concentration at 0.25 d ([3]; rat, liver, 5 mg/kg b. w.): 6140 ± 1890 ng/g
- concentration at 1 d ([3]; rat, liver, 5 mg/kg b. w.): 2830 ± 520 ng/g
- concentration at 3 d ([3]; rat, liver, 5 mg/kg b. w.): 1020 ± 270 ng/g
- concentration at 7 d ([3]; rat, liver, 5 mg/kg b. w.): 560 ± 120 ng/g
- concentration at 14 d ([3]; rat, liver, 5 mg/kg b. w.): 170 ± 30 ng/g
- concentration at 0.25 d ([3]; rat, muscle, 5 mg/kg b.w.): 1020 ± 480 ng/g
- concentration at 1 d ([3]; rat, muscle, 5 mg/kg b.w.): 700 ± 210 ng/g
- concentration at 3 d ([3]; rat, muscle, 5 mg/kg b.w.): 380 ± 90 ng/g
- concentration at 7 d ([3]; rat, muscle, 5 mg/kg b.w.): 170 ± 40 ng/g
- half-life ([3]; rat, tissues (liver, kidney, muscle, fat/skin), 5 mg/kg, rats tissues, read-out: t1/2 of the individual compound, range over tissues): 62.2 to 100 h
- share of the sample radioactivity in the detected tissues ([3]; rats liver, kidney, muscle, fat, over the sampling times): more than 42%
